Values after ≈ are worked out from the molar mass of the structure shown. Where two headings read alike, the source gives them in different places.
Columns and labels:
[1] = test system: MDR S. aureus (CH-11); experiment: Frequency of resistance (FoR) in vitro; type: cell-based
[2] = test system: Staphylococcus haemolyticus strain JCM 2416; experiment: microbe, parasite or virus in culture; settings: JCM2416
[3] = test system: S. aureus (ATCC #29213); type: cell-based
[4] = test system: Staphylococcus aureus strain NBRC 100910; experiment: MIC against clinical isolates (Christiana Hospital); type: cell-based
[5] = test system: Staphylococcus genus clinical strain CH-16 (16S ID n/a); experiment: microbe, parasite or virus in culture; type: cell-based; settings: clinical strain CH-16, drug resistance Y

## COc1cccc(OC)c1C(=O)N[C@@H]1C(=O)N2[C@@H]1SC(C)(C)[C@@H]2C(=O)O [Methicillin]
[1]; 2X MIC
  Frequency of resistance (FoR): resistant
[1]; 3X MIC
  Frequency of resistance (FoR): resistant
[1]; 4X MIC
  Frequency of resistance (FoR): resistant
[1]; 5X MIC
  Frequency of resistance (FoR): resistant
[1]; 10X MIC
  Frequency of resistance (FoR): resistant
[2]
  MIC: 8 µg/mL (≈ 21 µM)
[3]; 2X MIC
  Frequency of resistance (FoR): <3.72 × 10^−10
[3]; 3X MIC
  Frequency of resistance (FoR): <3.72 × 10^−10
[3]; 4X MIC
  Frequency of resistance (FoR): <3.72 × 10^−10
[3]; 5X MIC
  Frequency of resistance (FoR): <3.72 × 10^−10
[3]; 10X MIC
  Frequency of resistance (FoR): <3.72 × 10^−10
[4]; NBRC100910, clinical strain CH-01, drug resistance N
  MIC: 1 µg/mL (≈ 2.63 µM)
[4]; NBRC100910, clinical strain CH-02, drug resistance N
  MIC: 1 µg/mL (≈ 2.63 µM)
[4]; NBRC100910, clinical strain CH-03, drug resistance N
  MIC: 1 µg/mL (≈ 2.63 µM)
[4]; NBRC100910, clinical strain CH-04, drug resistance N
  MIC: 2 µg/mL (≈ 5.26 µM)
[4]; NBRC100910, clinical strain CH-05, drug resistance N
  MIC: 1 µg/mL (≈ 2.63 µM)
[4]; NBRC100910, clinical strain CH-06, drug resistance N
  MIC: 1 µg/mL (≈ 2.63 µM)
[4]; NBRC100910, clinical strain CH-07, drug resistance N
  MIC: 1 µg/mL (≈ 2.63 µM)
[4]; NBRC100910, clinical strain CH-08, drug resistance N
  MIC: 1 µg/mL (≈ 2.63 µM)
[4]; NBRC100910, clinical strain CH-09, drug resistance N
  MIC: 8 µg/mL (≈ 21 µM)
[4]; NBRC100910, clinical strain CH-10, drug resistance N
  MIC: 1 µg/mL (≈ 2.63 µM)
[4]; NBRC100910, clinical strain CH-11, drug resistance Y
  MIC: 32 µg/mL (≈ 84.1 µM)
[4]; NBRC100910, clinical strain CH-12, drug resistance Y
  MIC: 16 µg/mL (≈ 42.1 µM)
[4]; NBRC100910, clinical strain CH-13, drug resistance Y
  MIC: > 64 µg/mL
[4]; NBRC100910, clinical strain CH-14, drug resistance Y
  MIC: > 64 µg/mL
[4]; NBRC100910, clinical strain CH-15, drug resistance Y
  MIC: > 64 µg/mL
[4]; NBRC100910, clinical strain CH-17, drug resistance Y
  MIC: 16 µg/mL (≈ 42.1 µM)
[4]; NBRC100910, clinical strain CH-20, drug resistance Y
  MIC: 4 µg/mL (≈ 10.5 µM)
[5]
  MIC: 64 µg/mL (≈ 168 µM)

Reference: US20220133846A1, “NOVEL ANTIMICROBIAL COMPOUND AND USES THEREOF” (priority 2019, published 2022)
